Measurements reported in the NIST ThermoML archive (doi:10.1021/je900212d).

Tests used:
[1] = xn = mol fraction of the nth substance listed; details: 101 kPa, Liquid
[2] = 101.33 kPa, Liquid

O=Cc1ccccc1 [benzaldehyde] + CCCO
[1]
Details | mass density [kg/m3] | viscosity [mPa·s]
288.15 K, x2 = 0.099 | 1038.8 | 1.689
288.15 K, x2 = 0.193 | 1021.8 | 1.661
288.15 K, x2 = 0.3112 | 997.7 | 1.622
288.15 K, x2 = 0.3949 | 980.8 | 1.637
288.15 K, x2 = 0.5004 | 956.4 | 1.645
288.15 K, x2 = 0.5997 | 932.9 | 1.683
288.15 K, x2 = 0.6932 | – | 1.774
288.15 K, x2 = 0.8026 | 875.4 | 1.873
288.15 K, x2 = 0.9046 | 843.1 | 2.075
293.15 K, x2 = 0.0988 | 1034.2 | 1.536
293.15 K, x2 = 0.1927 | 1017 | 1.505
293.15 K, x2 = 0.3108 | 993.2 | 1.468
293.15 K, x2 = 0.3944 | 976.2 | 1.475
293.15 K, x2 = 0.5 | 951.6 | 1.483
293.15 K, x2 = 0.5992 | 928.6 | 1.501
293.15 K, x2 = 0.6927 | – | 1.588
293.15 K, x2 = 0.8023 | 871.4 | 1.669
293.15 K, x2 = 0.9045 | 839.1 | 1.84
298.15 K, x2 = 0.099 | 1029.9 | 1.405
298.15 K, x2 = 0.1929 | 1012.8 | 1.373
298.15 K, x2 = 0.3111 | 989.2 | 1.337
298.15 K, x2 = 0.3948 | 971.3 | 1.333
298.15 K, x2 = 0.5003 | 947 | 1.342
298.15 K, x2 = 0.5996 | 923.7 | 1.363
298.15 K, x2 = 0.693 | – | 1.423
298.15 K, x2 = 0.8025 | 867.6 | 1.491
298.15 K, x2 = 0.9046 | 835.3 | 1.64
303.15 K, x2 = 0.0989 | 1025.9 | 1.292
303.15 K, x2 = 0.1927 | 1008.1 | 1.258
303.15 K, x2 = 0.3108 | 984.8 | 1.224
303.15 K, x2 = 0.3945 | 967 | 1.216
303.15 K, x2 = 0.5 | 942.9 | 1.223
303.15 K, x2 = 0.5993 | 919.5 | 1.237
303.15 K, x2 = 0.6928 | – | 1.287
303.15 K, x2 = 0.8023 | 863.6 | 1.342
303.15 K, x2 = 0.9045 | 831.6 | 1.491
308.15 K, x2 = 0.0988 | 1021.4 | 1.193
308.15 K, x2 = 0.1926 | 1003.4 | 1.158
308.15 K, x2 = 0.3106 | 980.1 | 1.126
308.15 K, x2 = 0.3942 | 962.7 | 1.12
308.15 K, x2 = 0.4997 | 937.8 | 1.117
308.15 K, x2 = 0.599 | 915.5 | 1.128
308.15 K, x2 = 0.6925 | – | 1.169
308.15 K, x2 = 0.8022 | 858.9 | 1.215
308.15 K, x2 = 0.9044 | 827.3 | 1.317
313.15 K, x2 = 0.0986 | 1015.1 | 1.104
313.15 K, x2 = 0.1923 | 997.8 | 1.069
313.15 K, x2 = 0.3102 | 973.8 | 1.039
313.15 K, x2 = 0.3938 | 956.5 | 1.024
313.15 K, x2 = 0.4993 | 934 | 1.026
313.15 K, x2 = 0.5986 | 910.9 | 1.033
313.15 K, x2 = 0.6922 | 894.8 | 1.063
313.15 K, x2 = 0.8019 | 853.6 | 1.099
313.15 K, x2 = 0.9043 | 823.6 | 1.188

ClCCCl [1,2-dichloroethane]
[2]
Details | mass density [kg/m3] | viscosity [mPa·s]
288.15 K | 1259 | 0.87
293.15 K | 1251.9 | 0.8112
298.15 K | 1247.4 | 0.7597
303.15 K | 1239 | 0.7112
308.15 K | 1231.2 | 0.6747
313.15 K | 1222 | 0.6269

ClCCCl [1,2-dichloroethane] + CCCO
[1]
Details | mass density [kg/m3] | viscosity [mPa·s]
288.15 K, x2 = 0.1054 | 1211 | 0.8441
288.15 K, x2 = 0.2095 | 1166.4 | 0.8809
288.15 K, x2 = 0.3124 | 1121.8 | 0.9238
288.15 K, x2 = 0.4141 | 1078.4 | 0.998
288.15 K, x2 = 0.5146 | 1032.4 | 1.1
288.15 K, x2 = 0.6139 | 986 | 1.256
288.15 K, x2 = 0.7121 | 942.8 | 1.464
288.15 K, x2 = 0.8092 | 895.4 | 1.726
288.15 K, x2 = 0.9051 | 843.5 | 2.029
293.15 K, x2 = 0.1054 | 1205 | 0.785
293.15 K, x2 = 0.2096 | 1159.7 | 0.8086
293.15 K, x2 = 0.3126 | 1116.2 | 0.8504
293.15 K, x2 = 0.4143 | 1072.1 | 0.9115
293.15 K, x2 = 0.5148 | 1026.6 | 0.9988
293.15 K, x2 = 0.6141 | 980.6 | 1.139
293.15 K, x2 = 0.7123 | 938.6 | 1.31
293.15 K, x2 = 0.8093 | 890.5 | 1.534
293.15 K, x2 = 0.9052 | 839.4 | 1.795
298.15 K, x2 = 0.1054 | 1199.2 | 0.7324
298.15 K, x2 = 0.2095 | 1154.4 | 0.7472
298.15 K, x2 = 0.3124 | 1109.3 | 0.7831
298.15 K, x2 = 0.4141 | 1067.1 | 0.8368
298.15 K, x2 = 0.5146 | 1021.3 | 0.911
298.15 K, x2 = 0.614 | 976.2 | 1.035
298.15 K, x2 = 0.7122 | 934 | 1.176
298.15 K, x2 = 0.8092 | 885.9 | 1.37
298.15 K, x2 = 0.9052 | 836.3 | 1.603
303.15 K, x2 = 0.1056 | 1192.6 | 0.6845
303.15 K, x2 = 0.2099 | 1147.7 | 0.7003
303.15 K, x2 = 0.3129 | 1104.2 | 0.7255
303.15 K, x2 = 0.4146 | 1061.1 | 0.7704
303.15 K, x2 = 0.5151 | 1016 | 0.8342
303.15 K, x2 = 0.6144 | 970.5 | 0.9344
303.15 K, x2 = 0.7125 | 929.7 | 1.061
303.15 K, x2 = 0.8095 | 882.6 | 1.228
303.15 K, x2 = 0.9053 | 832.8 | 1.441
308.15 K, x2 = 0.1057 | 1183.4 | 0.64
308.15 K, x2 = 0.21 | 1140.7 | 0.6502
308.15 K, x2 = 0.3131 | 1097.2 | 0.6731
308.15 K, x2 = 0.4149 | 1054.9 | 0.7116
308.15 K, x2 = 0.5154 | 1009.5 | 0.7657
308.15 K, x2 = 0.6147 | 964 | 0.8541
308.15 K, x2 = 0.7128 | 924.3 | 0.9603
308.15 K, x2 = 0.8097 | 877.3 | 1.105
308.15 K, x2 = 0.9054 | 827.5 | 1.303
313.15 K, x2 = 0.1058 | 1174.9 | 0.6002
313.15 K, x2 = 0.2103 | 1133.5 | 0.6056
313.15 K, x2 = 0.3134 | 1089 | 0.6256
313.15 K, x2 = 0.4152 | 1047.4 | 0.6588
313.15 K, x2 = 0.5158 | 1004 | 0.706
313.15 K, x2 = 0.615 | 956.7 | 0.7849
313.15 K, x2 = 0.7131 | 918.9 | 0.8728
313.15 K, x2 = 0.8099 | 870.1 | 0.9952
313.15 K, x2 = 0.9055 | 821.5 | 1.176
